Laboratory results published in patent US9988400B2 (Genentech, Inc., priority 2013, dated 2018).

molecular target: T1, HEK cells stably transfected with tetracycline inducible hNR1 and hNR2A (Homo sapiens, UniProt Q05586+Q12879); assay: Assay 1: Cell-Based Assay, cytosolic calcium response to positive allosteric modulators (with 30 μM glycine and 300 nM L-glutamate, EC30); details: Table 2; cytosolic calcium response, with 30 μM glycine and 300 nM L-glutamate (EC30); — = no plateau was reached
T1 construct: expressed in transfected cells; host or cells: HEK cells, stably transfected, tetracycline/doxycycline inducible
Outline: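 Cells induced 24 h with 7.5 μg mL^−1 doxycycline plus 500 μM (+)-ketamine, loaded 60 min at 37 °C with calcium dye in Mg-free HBSS (1.8 mM Ca, probenecid, 10 μM (+)-ketamine, pH 7.15). Peak RFU over 5 min after compound addition, scaled to 100 μM L-glutamate (100%) and 0 μM (0%); four-parameter Hill fit for EC50, max % if no plateau.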

T1 sequence (Q12879 23-1464, other chains not shown): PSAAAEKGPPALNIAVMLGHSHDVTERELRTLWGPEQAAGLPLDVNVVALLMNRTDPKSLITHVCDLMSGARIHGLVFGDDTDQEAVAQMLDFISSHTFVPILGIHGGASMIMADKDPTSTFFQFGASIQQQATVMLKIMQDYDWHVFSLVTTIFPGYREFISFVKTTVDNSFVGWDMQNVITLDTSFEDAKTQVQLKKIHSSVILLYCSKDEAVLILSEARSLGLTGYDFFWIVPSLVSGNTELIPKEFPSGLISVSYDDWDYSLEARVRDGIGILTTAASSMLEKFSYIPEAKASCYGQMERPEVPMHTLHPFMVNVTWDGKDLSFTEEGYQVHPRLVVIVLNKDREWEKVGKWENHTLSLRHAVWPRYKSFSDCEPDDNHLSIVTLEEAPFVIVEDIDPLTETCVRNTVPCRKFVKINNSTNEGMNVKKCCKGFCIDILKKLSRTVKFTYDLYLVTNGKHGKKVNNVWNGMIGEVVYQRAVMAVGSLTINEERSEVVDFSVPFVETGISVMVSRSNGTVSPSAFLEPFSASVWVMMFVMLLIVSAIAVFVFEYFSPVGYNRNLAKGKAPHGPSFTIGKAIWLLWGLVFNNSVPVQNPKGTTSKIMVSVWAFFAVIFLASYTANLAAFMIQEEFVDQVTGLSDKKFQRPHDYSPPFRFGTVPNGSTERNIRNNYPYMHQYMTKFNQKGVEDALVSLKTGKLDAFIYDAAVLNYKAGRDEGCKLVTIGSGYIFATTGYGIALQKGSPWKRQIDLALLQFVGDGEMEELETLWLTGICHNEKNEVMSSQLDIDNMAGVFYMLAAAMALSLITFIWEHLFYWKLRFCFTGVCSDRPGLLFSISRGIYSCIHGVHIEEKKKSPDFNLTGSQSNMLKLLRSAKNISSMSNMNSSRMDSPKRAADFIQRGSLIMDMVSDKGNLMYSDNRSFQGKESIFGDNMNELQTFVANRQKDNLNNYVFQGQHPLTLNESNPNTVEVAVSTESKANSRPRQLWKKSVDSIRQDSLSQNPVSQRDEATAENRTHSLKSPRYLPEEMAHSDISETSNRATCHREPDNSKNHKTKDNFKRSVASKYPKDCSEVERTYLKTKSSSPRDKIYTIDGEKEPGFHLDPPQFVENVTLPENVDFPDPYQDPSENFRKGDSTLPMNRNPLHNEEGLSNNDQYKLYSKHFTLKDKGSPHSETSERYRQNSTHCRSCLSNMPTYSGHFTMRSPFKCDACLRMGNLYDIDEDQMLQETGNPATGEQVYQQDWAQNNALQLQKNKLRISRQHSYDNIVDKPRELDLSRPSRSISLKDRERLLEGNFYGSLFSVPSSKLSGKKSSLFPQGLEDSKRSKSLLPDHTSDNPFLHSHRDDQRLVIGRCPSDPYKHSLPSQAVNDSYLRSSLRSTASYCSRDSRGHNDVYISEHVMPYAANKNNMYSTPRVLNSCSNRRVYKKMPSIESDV

Question: For CCNC(=O)c1c(C)sc2nc(Cc3cccc(C4CC4)c3F)cc(=O)n12 [Example 21.25, 7-(3-cyclopropyl-2-fluorobenzyl)-N-ethyl-2-methyl-5-oxo-5H-thiazolo[3,2-a]pyrimidine-3-carboxamide], which EC50 is on record?
Answer: 3.9 µM

Question: CNC(=O)c1c(C)sc2nc(Cc3cccc(C#N)c3F)c(F)c(=O)n12 [Example 21.27] was tested. Which EC50 did it give?
Answer: 16 µM

Question: For CCNC(=O)c1c(C)sc2nc(Cc3cccc(C#N)c3F)c(F)c(=O)n12 [Example 21.28, 7-(3-cyano-2-fluorobenzyl)-N-ethyl-6-fluoro-2-methyl-5-oxo-5H-thiazolo[3,2-a]pyrimidine-3-carboxamide], which EC50 is on record?
Answer: 11.4 µM

Question: With CNC(=O)c1c(C)sc2nc(Cc3cccc(C(F)(F)F)c3F)c(F)c(=O)n12 [Example 21.29, 6-fluoro-7-(2-fluoro-3-(trifluoromethyl)benzyl)-N,2-dimethyl-5-oxo-5H-thiazolo[3,2-a]pyrimidine-3-carboxamide] as the molecule, how does the EC50 read?
Answer: 4.7 µM

Question: Which EC50 does the source give for CNC(=O)c1c(C)sc2nc(Cc3cc(Cl)ccc3Cl)cc(=O)n12 [Example 21.48, 7-[(2,5-dichlorophenyl)methyl]-N,2-dimethyl-5-oxo-thiazolo[3,2-a]pyrimidine-3-carboxamide] here?
Answer: 8.2 µM

same assay, conditions: Table 2; responses scaled relative to 100 μM L-glutamate maximal response (100%) and 0 μM L-glutamate (0%)

Question: How did the Max % turn out when CCNC(=O)c1c(C)sc2nc(Cc3cccc(C4CC4)c3F)cc(=O)n12 [Example 21.25, 7-(3-cyclopropyl-2-fluorobenzyl)-N-ethyl-2-methyl-5-oxo-5H-thiazolo[3,2-a]pyrimidine-3-carboxamide] was run?
Answer: 105%

Question: For CCNC(=O)c1csc2nc(Cc3cccc(C#N)c3F)c(F)c(=O)n12 [Example 21.26, 7-(3-cyano-2-fluorobenzyl)-N-ethyl-6-fluoro-5-oxo-5H-thiazolo[3,2-a]pyrimidine-3-carboxamide], which Max % is on record?
Answer: 76.5%

Question: CNC(=O)c1c(C)sc2nc(Cc3cccc(C#N)c3F)c(F)c(=O)n12 [Example 21.27] was tested. Which Max % did it give?
Answer: 122%

Question: How did the Max % turn out when CCNC(=O)c1c(C)sc2nc(Cc3cccc(C#N)c3F)c(F)c(=O)n12 [Example 21.28, 7-(3-cyano-2-fluorobenzyl)-N-ethyl-6-fluoro-2-methyl-5-oxo-5H-thiazolo[3,2-a]pyrimidine-3-carboxamide] was run?
Answer: 126%

Question: For CNC(=O)c1c(C)sc2nc(Cc3cccc(C(F)(F)F)c3F)c(F)c(=O)n12 [Example 21.29, 6-fluoro-7-(2-fluoro-3-(trifluoromethyl)benzyl)-N,2-dimethyl-5-oxo-5H-thiazolo[3,2-a]pyrimidine-3-carboxamide], which Max % is on record?
Answer: 98.2%

Question: For CCNC(=O)c1c(C)sc2nc(Cc3cc(C#N)ccc3C)cc(=O)n12 [Example 21.30, 7-(5-cyano-2-methylbenzyl)-N-ethyl-2-methyl-5-oxo-5H-thiazolo[3,2-a]pyrimidine-3-carboxamide], which Max % is on record?
Answer: 100%

Question: With CCNC(=O)c1c(C)sc2nc(Cc3cc(C#N)ccc3F)cc(=O)n12 [Example 21.31, 7-(5-cyano-2-fluorobenzyl)-N-ethyl-2-methyl-5-oxo-5H-thiazolo[3,2-a]pyrimidine-3-carboxamide] as the molecule, how does the Max % read?
Answer: 88.8%

Question: Which Max % does the source give for CCNC(=O)c1c(C)sc2nc(Cc3cc(F)ccc3Cl)cc(=O)n12 [Example 21.32, 7-(2-chloro-5-fluorobenzyl)-N-ethyl-2-methyl-5-oxo-5H-thiazolo[3,2-a]pyrimidine-3-carboxamide] here?
Answer: 84.3%

Question: How did the Max % turn out when CCNC(=O)c1csc2nc(Cc3cccc(C#N)c3F)cc(=O)n12 [Example 21.33, 7-(3-cyano-2-fluorobenzyl)-N-ethyl-5-oxo-5H-thiazolo[3,2-a]pyrimidine-3-carboxamide] was run?
Answer: 82.5%

Question: For CCNC(=O)c1c(C)sc2nc(Cc3cc(F)ccc3C(F)(F)F)cc(=O)n12 [Example 21.34, N-ethyl-7-(5-fluoro-2-(trifluoromethyl)benzyl)-2-methyl-5-oxo-5H-thiazolo[3,2-a]pyrimidine-3-carboxamide], which Max % is on record?
Answer: 79.9%

Question: CCNC(=O)c1c(C)sc2nc(Cc3cccc4ccccc34)cc(=O)n12 [Example 21.35, N-ethyl-2-methyl-7-(naphthalen-1-ylmethyl)-5-oxo-5H-thiazolo[3,2-a]pyrimidine-3-carboxamide] was tested. Which Max % did it give?
Answer: 77.8%

Question: Which Max % does the source give for CCNC(=O)c1c(C)sc2nc(Cc3cc(F)ccc3C)cc(=O)n12 [Example 21.36, N-ethyl-7-(5-fluoro-2-methylbenzyl)-2-methyl-5-oxo-5H-thiazolo[3,2-a]pyrimidine-3-carboxamide] here?
Answer: 71.8%

Question: Which Max % does the source give for CCNC(=O)c1c(C)sc2nc(Cc3ccc(F)c(C#N)c3)cc(=O)n12 [Example 21.37, 7-(3-cyano-4-fluorobenzyl)-N-ethyl-2-methyl-5-oxo-5H-thiazolo[3,2-a]pyrimidine-3-carboxamide] here?
Answer: 68.4%

Question: For CCNC(=O)c1c(C)sc2nc(Cc3cccc4c3cnn4C)cc(=O)n12 [Example 21.38, N-ethyl-2-methyl-7-((1-methyl-1H-indazol-4-yl)methyl)-5-oxo-5H-thiazolo[3,2-a]pyrimidine-3-carboxamide], which Max % is on record?
Answer: 66.5%

Question: For CCNC(=O)c1c(C)sc2nc(Cc3cccc(NS(C)(=O)=O)c3)cc(=O)n12 [Example 21.39, N-ethyl-2-methyl-7-(3-(methylsulfonamido)benzyl)-5-oxo-5H-thiazolo[3,2-a]pyrimidine-3-carboxamide], which Max % is on record?
Answer: 62.6%

Question: For CCNC(=O)c1c(C)sc2nc(Cc3cc(C#N)ccc3C(F)(F)F)cc(=O)n12 [Example 21.40, 7-(5-cyano-2-(trifluoromethyl)benzyl)-N-ethyl-2-methyl-5-oxo-5H-thiazolo[3,2-a]pyrimidine-3-carboxamide], which Max % is on record?
Answer: 61.6%

Question: CNC(=O)c1c(C)sc2nc(Cc3ccc(Cl)cc3C)cc(=O)n12 [Example 21.41, 7-(4-chloro-2-methylbenzyl)-N,2-dimethyl-5-oxo-5H-thiazolo[3,2-a]pyrimidine-3-carboxamide] was tested. Which Max % did it give?
Answer: 59.7%

Question: CCNC(=O)c1c(C)sc2nc(Cc3cc(F)ccc3F)cc(=O)n12 [Example 21.42, 7-(2,5-difluorobenzyl)-N-ethyl-2-methyl-5-oxo-5H-thiazolo[3,2-a]pyrimidine-3-carboxamide] was tested. Which Max % did it give?
Answer: 54.5%

Question: CCNC(=O)c1c(C2CC2)sc2nc(Cc3cccc(C#N)c3)cc(=O)n12 [Example 21.43, 7-(3-cyanobenzyl)-2-cyclopropyl-N-ethyl-5-oxo-5H-thiazolo[3,2-a]pyrimidine-3-carboxamide] was tested. Which Max % did it give?
Answer: 53.5%

Question: For CCNC(=O)c1c(C)sc2nc(Cc3ccccc3F)cc(=O)n12 [Example 21.44, N-ethyl-7-(2-fluorobenzyl)-2-methyl-5-oxo-5H-thiazolo[3,2-a]pyrimidine-3-carboxamide], which Max % is on record?
Answer: 51.9%

Question: Which Max % does the source give for CCNC(=O)c1c(C)sc2nc(Cc3cccc(F)c3F)cc(=O)n12 [Example 21.45, 7-(2,3-difluorobenzyl)-N-ethyl-2-methyl-5-oxo-5H-thiazolo[3,2-a]pyrimidine-3-carboxamide] here?
Answer: 49.1%

Question: For CCNC(=O)c1c(C)sc2nc(Cc3cccc(F)c3)cc(=O)n12 [Example 21.46, N-ethyl-7-(3-fluorobenzyl)-2-methyl-5-oxo-5H-thiazolo[3,2-a]pyrimidine-3-carboxamide], which Max % is on record?
Answer: 43.2%

Question: Which Max % does the source give for CNC(=O)c1c(C)sc2nc(Cc3ccc(F)c(Cl)c3)cc(=O)n12 [Example 21.47, 7-[(3-chloro-4-fluoro-phenyl)methyl]-N,2-dimethyl-5-oxo-thiazolo[3,2-a]pyrimidine-3-carboxamide] here?
Answer: 103%

Question: For CNC(=O)c1c(C)sc2nc(Cc3cc(Cl)ccc3Cl)cc(=O)n12 [Example 21.48, 7-[(2,5-dichlorophenyl)methyl]-N,2-dimethyl-5-oxo-thiazolo[3,2-a]pyrimidine-3-carboxamide], which Max % is on record?
Answer: 100%

Question: CNC(=O)c1c(C)sc2nc(Cc3cccc(OC(F)(F)F)c3)cc(=O)n12 [Example 21.49, N,2-dimethyl-5-oxo-7-[[3-(trifluoromethoxy)phenyl]methyl]thiazolo[3,2-a]pyrimidine-3-carboxamide] was tested. Which Max % did it give?
Answer: 82.3%

Question: For CNC(=O)c1c(C)sc2nc(Cc3cc(C#N)ccc3F)cc(=O)n12 [Example 21.50, 7-[(5-cyano-2-fluoro-phenyl)methyl]-N,2-dimethyl-5-oxo-thiazolo[3,2-a]pyrimidine-3-carboxamide], which Max % is on record?
Answer: 76.1%

Question: For CNC(=O)c1c(C)sc2nc(Cc3cc(Cl)cc(C#N)c3)cc(=O)n12 [Example 21.51, 7-[(3-chloro-5-cyano-phenyl)methyl]-N,2-dimethyl-5-oxo-thiazolo[3,2-a]pyrimidine-3-carboxamide], which Max % is on record?
Answer: 75.0%

Question: Which Max % does the source give for CNC(=O)c1c(C)sc2nc(Cc3cccc(C4CC4)c3)cc(=O)n12 [Example 21.52, 7-[(3-cyclopropylphenyl)methyl]-N,2-dimethyl-5-oxo-thiazolo[3,2-a]pyrimidine-3-carboxamide] here?
Answer: 72.9%

Question: Which Max % does the source give for CNC(=O)c1c(C)sc2nc(Cc3cc(F)ccc3F)cc(=O)n12 [Example 21.53, 7-[(2,5-difluorophenyl)methyl]-N,2-dimethyl-5-oxo-thiazolo[3,2-a]pyrimidine-3-carboxamide] here?
Answer: 49%

Question: With CNC(=O)c1c(C)sc2nc(Cc3ccc(F)c(F)c3)cc(=O)n12 [Example 21.54, 7-[(3,4-difluorophenyl)methyl]-N,2-dimethyl-5-oxo-thiazolo[3,2-a]pyrimidine-3-carboxamide] as the molecule, how does the Max % read?
Answer: 46%

Question: Which Max % does the source give for CNC(=O)c1c(C)sc2nc(Cc3cccc(F)c3F)cc(=O)n12 [Example 21.55, 7-[(2,3-difluorophenyl)methyl]-N,2-dimethyl-5-oxo-thiazolo[3,2-a]pyrimidine-3-carboxamide] here?
Answer: 43.8%

Question: With CNC(=O)c1c(C)sc2nc(Cc3ccc(Cl)cc3F)cc(=O)n12 [Example 21.56, 7-[(4-chloro-2-fluoro-phenyl)methyl]-N,2-dimethyl-5-oxo-thiazolo[3,2-a]pyrimidine-3-carboxamide] as the molecule, how does the Max % read?
Answer: 41%

Question: For CNC(=O)c1c(C)sc2nc(Cc3ccc(Cl)cc3Cl)cc(=O)n12 [Example 21.57, 7-[(2,4-dichlorophenyl)methyl]-N,2-dimethyl-5-oxo-thiazolo[3,2-a]pyrimidine-3-carboxamide], which Max % is on record?
Answer: 64.1%

Question: For CNC(=O)c1c(C)sc2nc(Cc3ccc(C)c(F)c3)cc(=O)n12 [Example 21.58, 7-[(3-fluoro-4-methyl-phenyl)methyl]-N,2-dimethyl-5-oxo-thiazolo[3,2-a]pyrimidine-3-carboxamide], which Max % is on record?
Answer: 46.1%

Question: How did the Max % turn out when CNC(=O)c1c(C)sc2nc(Cc3ccc(F)cc3C(F)(F)F)cc(=O)n12 [Example 21.59, 7-[[4-fluoro-2-(trifluoromethyl)phenyl]methyl]-N,2-dimethyl-5-oxo-thiazolo[3,2-a]pyrimidine-3-carboxamide] was run?
Answer: 42.5%

Question: CNC(=O)c1c(C)sc2nc(Cc3ccc(F)cc3C3CC3)cc(=O)n12 [Example 21.60, 7-[(2-cyclopropyl-4-fluoro-phenyl)methyl]-N,2-dimethyl-5-oxo-thiazolo[3,2-a]pyrimidine-3-carboxamide] was tested. Which Max % did it give?
Answer: 78%
